# Source: article PMC9399069, “Imaging PARP with [^18F]rucaparib in pancreatic cancer models” (European Journal of Nuclear Medicine and Molecular Imaging, 2022)
# Legend:
# Format in all cases: cell-based, human
# PSN1 cells [1] = assay: Uptake and retention of radiolabelled PARP inhibitors in PSN1 cells treated with DNA-damaging reagents; details: 100 μM, 3 h, retention at 3 h
# Method: (§1) AsPC1 (1 × 10^5 cells/well) and PSN1 cells (7.5 × 10^4 cells/well) were exposed to methyl methanesulfonate (MMS) or temozolomide (TMZ) (100 μM, in a total of 270 μL growth medium) for 3 h at 37 °C. Additionally, [^18F]rucaparib (500 kBq, 3.6 GBq/μmol; [^TotalF]rucaparib final concentration: 301 nM) or [^18F]olaparib (400 kBq, 8.5 GBq/μmol; [^TotalF]olaparib final concentration: 300 nM) was added, and the cells were incubated at 37 °C for 30 min. Cell culture medium was removed, and cells were washed with PBS. For cell retention, fresh medium (300 μL) was added to the cells. Cells were then further incubated at 37°C for 3 h. Cell culture medium was removed, and the amount of ^18F in the cell lysates was measured as above. Protein expression of the cells after DNA-damaging treatments (or PARP inhibitors 10 μM) was performed using flow cytometry as above.
# AsPC1 cells [2] = assay: Protein expression by flow cytometry after PARP inhibitors or DNA-damaging reagents, AsPC1 cells; details: 100 μM, 3 h
# Method: (§2) Relative expression of PARP1, 2 and 3, ALDH2 and IMPDH2 was determined by flow cytometry. Cells (1 × 10^6 cells/well) were seeded in 96-well plates in growth medium, washed with FACS buffer (PBS, 2% FBS, 1 mM EDTA, 0.1% NaN3) and centrifuged at 500×g for 5 min. Immunostaining was performed using the Foxp3/transcription factor staining buffer set (eBioscience^TM, USA). Intracellular staining was conducted in permeabilisation buffer for 30 min at 4 °C in the dark using the following antibodies: AF488-conjugated anti-PARP-1 (1:100; sc-80070), AF594-conjugated anti-PARP-2 (1:100; sc-393310), anti-PARP-3 (1:100; sc-390771) or anti-PARP-tankyrase-1/2 (1:100; sc-365897) from Santa Cruz Biotechnology Inc. (USA), AF488-conjugated anti-IMPDH2 (1:500; ab-200770) from Abcam plc. (UK) and AF488-conjugated anti-ALDH2 (1:100, ABIN6817568) from Antibodies-online GmbH (UK). Fixable viability dye ef780 (1:4000; eBioscience^TM; 65-0865-14) was used for live and dead cells discrimination. Fixation of immunostained cells was performed for 15 min at room temperature. Flow cytometry was conducted on the CytoFLEX benchtop flow cytometer (Beckman Coulter, USA), with appropriate lasers and filters, positive and negative controls. Data were analysed using FlowJo^TM (Tree Star Inc., BD Biosciences, USA).
# as §1
# AsPC1 cells [3] = assay: Uptake and retention of radiolabelled PARP inhibitors in AsPC1 cells treated with DNA-damaging reagents; details: 100 μM, 3 h, retention at 3 h
# Method: as §1
# PSN1 cells [4] = assay: Protein expression by flow cytometry after PARP inhibitors or DNA-damaging reagents, PSN1 cells; details: 100 μM, 3 h
# Method: as §2, §1
compound,measurement,setting,value
"COS(C)(=O)=O [MMS, methyl methanesulfonate]",Cell association and retention of [TotalF]rucaparib and [TotalF]olaparib after exposure to DNA-damaging reagent,PSN1 cells [1],increased
same,Upregulation of PARP proteins,AsPC1 cells [2]; flow cytometry,< 10%
same,γH2AX expression,AsPC1 cells [2]; not statistically significant in AsPC1 cells,increasing trend
same,Cell association and retention of [TotalF]rucaparib and [TotalF]olaparib after exposure to DNA-damaging reagent,AsPC1 cells [3],increased
same,γH2AX expression,PSN1 cells [4],increasing trend
same,Upregulation of PARP proteins,PSN1 cells [4]; flow cytometry,< 10%
